# According to patent US8969565B2, “Imidazo[1,2-b]pyridazine-based compounds, compositions comprising them, and methods of their use” (Lexicon Pharmaceuticals, Inc., priority 2012, dated 2015):
# Columns and labels:
# [1] = biological target: T1, AAK1 (Homo sapiens, UniProt Q2M2I8); assay: HEK281 cell-based assay (phospho-mu2 Western blot in transfected HEK293F cells); details: 3 hours incubation, read-out: CBA IC50
# T1 construct: HA; expressed in transfected cells; host or cells: HEK293F
# Procedure, shortened: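 After 3 hours at 37° C. with compound (five 3-fold-spaced concentrations, DMEM+0.5% FBS), transiently transfected HEK293F cells expressing full-length human AAK1 and Flag-tagged mu2 were lysed. mu2 phosphorylation was read by anti-phospho-mu2 immunoblot, normalized against total mu2 by anti-Flag blot.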
# [2] = biological target: T1, AAK1; assay: P81 filter plate assay; assay type: biochemical; details: full-length human AAK1, Mu2 substrate
# Procedure: Compounds were serially diluted into a Labcyte LDV plate (Labcyte, cat#LP-0200) using a Mutiprobe (PerkinElmer) and Biomek FX (Beckman Coulter) so that the highest compound concentration was at 96 μM. Compounds were then pinged (75 nL per well) into a Greiner 384-well reaction plate (Greiner, #781076) using an ECHO 550 Liquid Handler (Labcyte). A total of 12 μl reaction buffer (IMAP buffer containing Tween and DTT, from Molecular Devices) was then added to each well of columns 1 and 13 for the negative controls and 12 μl of 2×AAK1 (0.2 nM full-length human protein, NCBI accession no. NP_055726.2) was added to the remaining wells. Enzyme was then pre-incubated with compound for 10 minutes at RT. Reactions were initiated upon Minitrak (PerkinElmer) addition of 12 μl substrate mix containing 2×Mu2 (0.2 μM, full length human protein), 2× cold ATP (2 μM), and 1.3 μCi of hot ^33P-ATP. Reactions proceeded for one hour at RT. Meanwhile, Millipore 384-well P81 filter plates (Millipore, catalog #MZPHNOW10) were placed on a plate washer (Zoom ZW, from Titertek) and pre-wet with 50 μl 1% phosphoric acid. Kinase reactions were then stopped upon addition of 24 μl of 2% phosphoric acid to each well and the Minitrak was then used to transfer 40 μl from each well into the pre-wet Millipore 384-well P81 filter plates. Reaction mixtures were incubated for 10 minutes at RT in the P81 plates, followed by washing five times with 100 μl/well of 1% phosphoric acid using the Zoom filter washer. The bottom of each filter plate was sealed followed by addition of 20 μl Microscint 40 to each well, sealing the top of the plates with Flashplate cover, and then waiting one hour until reading on the TopCount (PerkinElmer).
# T1 sequence (Q2M2I8 1-863 isoform Q2M2I8-2): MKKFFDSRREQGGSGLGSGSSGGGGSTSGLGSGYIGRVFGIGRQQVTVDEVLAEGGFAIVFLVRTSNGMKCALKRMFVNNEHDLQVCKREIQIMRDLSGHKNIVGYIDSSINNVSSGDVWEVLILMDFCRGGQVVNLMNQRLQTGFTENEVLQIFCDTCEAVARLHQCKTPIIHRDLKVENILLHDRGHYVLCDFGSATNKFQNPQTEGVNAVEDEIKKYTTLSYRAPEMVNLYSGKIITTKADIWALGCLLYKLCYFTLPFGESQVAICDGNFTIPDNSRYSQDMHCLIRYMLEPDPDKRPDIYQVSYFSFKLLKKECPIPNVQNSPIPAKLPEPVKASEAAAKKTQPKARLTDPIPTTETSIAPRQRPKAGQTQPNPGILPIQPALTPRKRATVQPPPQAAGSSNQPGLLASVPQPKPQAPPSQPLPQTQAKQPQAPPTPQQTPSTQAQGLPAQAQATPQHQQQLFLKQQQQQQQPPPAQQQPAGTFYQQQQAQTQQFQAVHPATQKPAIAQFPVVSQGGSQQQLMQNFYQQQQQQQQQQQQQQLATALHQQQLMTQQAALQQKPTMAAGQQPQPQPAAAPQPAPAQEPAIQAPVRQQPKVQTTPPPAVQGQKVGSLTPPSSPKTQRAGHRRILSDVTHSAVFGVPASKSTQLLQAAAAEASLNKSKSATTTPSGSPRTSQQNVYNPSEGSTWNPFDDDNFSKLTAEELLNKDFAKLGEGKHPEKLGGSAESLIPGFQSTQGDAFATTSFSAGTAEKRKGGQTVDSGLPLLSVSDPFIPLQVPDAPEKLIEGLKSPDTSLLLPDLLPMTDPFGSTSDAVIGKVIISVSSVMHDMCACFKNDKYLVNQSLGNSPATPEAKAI
SMILES,IC50 [1] [nM],IC50 [2] [nM]
"O=C(N1CCCC1)N1CCN(c2ccc3ncc(-c4ccccc4)n3n2)CC1 [(4-(3-phenylimidazo[1,2-b]pyridazin-6-yl)piperazin-1-yl)(pyrrolidin-1-yl)methanone]",≤ 1000,≤ 10
"Cc1nc(C)c(-c2cnc3ccc(NC[C@@H]4CCCN4C(=O)CC(C)C)nn23)s1 [(S)-1-(2-(((3-(2,4-dimethylthiazol-5-yl)imidazo[1,2-b]pyridazin-6-yl)amino)methyl)pyrrolidin-1-yl)-3-methylbutan-1-one]",≤ 10,≤ 10
"CC(C)CC(=O)N1CCC[C@H]1CNc1ccc2ncc(-c3cccc(Cl)c3)n2n1 [(S)-1-(2-(((3-(3-chlorophenyl)imidazo[1,2-b]pyridazin-6-yl)amino)methyl)pyrrolidin-1-yl)-3-methylbutan-1-one]",≤ 10,≤ 10
"CC(C)CC(=O)N1CCC[C@H]1CNc1ccc2ncc(-c3cccc(F)c3)n2n1 [(S)-1-(2-(((3-(3-fluorophenyl)imidazo[1,2-b]pyridazin-6-yl)amino)methyl)pyrrolidin-1-yl)-3-methylbutan-1-one]",≤ 10,≤ 10
"COc1cccc(-c2cnc3ccc(NC[C@@H]4CCCN4C(=O)CC(C)C)nn23)c1 [(S)-1-(2-(((3-(3-methoxyphenyl)imidazo[1,2-b]pyridazin-6-yl)amino)methyl)pyrrolidin-1-yl)-3-methylbutan-1-one]",≤ 100,≤ 10
"CC(C)(C)C(=O)N1CCC[C@H]1CNc1ccc2ncc(-c3ccc(CN)cc3)n2n1 [(S)-1-(2-(((3-(4-(aminomethyl)phenyl)imidazo[1,2-b]pyridazin-6-yl)amino)methyl)pyrrolidin-1-yl)-2,2-dimethylpropan-1-one]",≤ 100,≤ 10
"CC(C)(C)CC(=O)N1CCC[C@H]1CNc1ccc2ncc(-c3ccc(CN)cc3)n2n1 [(S)-1-(2-(((3-(4-(aminomethyl)phenyl)imidazo[1,2-b]pyridazin-6-yl)amino)methyl)pyrrolidin-1-yl)-3,3-dimethylbutan-1-one]",≤ 100,≤ 10
"CCCC(=O)N1CCC[C@H]1CNc1ccc2ncc(-c3ccc(CN)cc3)n2n1 [(S)-1-(2-(((3-(4-(aminomethyl)phenyl)imidazo[1,2-b]pyridazin-6-yl)amino)methyl)pyrrolidin-1-yl)butan-1-one]",≤ 10,≤ 10
"CC(C)CC(=O)N1CCC[C@H]1CNc1ccc2ncc(-c3ccc(F)cc3)n2n1 [(S)-1-(2-(((3-(4-fluorophenyl)imidazo[1,2-b]pyridazin-6-yl)amino)methyl)pyrrolidin-1-yl)-3-methylbutan-1-one]",≤ 100,≤ 10
"COc1ccc(-c2cnc3ccc(NC[C@@H]4CCCN4C(=O)CC(C)C)nn23)cc1 [(S)-1-(2-(((3-(4-methoxyphenyl)imidazo[1,2-b]pyridazin-6-yl)amino)methyl)pyrrolidin-1-yl)-3-methylbutan-1-one]",≤ 1000,≤ 10
"COc1ncccc1-c1cnc2ccc(NC[C@@H]3CCC(=O)N3CCC(C)(C)C)nn12 [(S)-1-(3,3-dimethylbutyl)-5-(((3-(2-methoxypyridin-3-yl)imidazo[1,2-b]pyridazin-6-yl)amino)methyl)pyrrolidin-2-one]",≤ 10,≤ 10
"CC(C)(C)CCN1C(=O)CC[C@H]1CNc1ccc2ncc(-c3ccccc3)n2n1 [(S)-1-(3,3-dimethylbutyl)-5-(((3-phenylimidazo[1,2-b]pyridazin-6-yl)amino)methyl)pyrrolidin-2-one]",≤ 1000,≤ 10
"CC(=O)c1cnc2ccc(N3CCN(C(=O)[C@@H](N)C(C)C)CC3)nn12 [(S)-1-(4-(3-acetylimidazo[1,2-b]pyridazin-6-yl)piperazin-1-yl)-2-amino-3-methylbutan-1-one]",≤ 100,≤ 10
"CC1(OC(=O)N2CCC[C@H]2CNc2ccc3ncc(Br)n3n2)CCCC1 [(S)-1-methylcyclopentyl 2-(((3-bromoimidazo[1,2-b]pyridazin-6-yl)amino)methyl)pyrrolidine-1-carboxylate]",≤ 1000,≤ 10
"COc1ncccc1-c1cnc2ccc(N3CC[C@H](N(C)C(=O)OCC(F)(F)F)C3)nn12 [(S)-2,2,2-trifluoroethyl (1-(3-(2-methoxypyridin-3-yl)imidazo[1,2-b]pyridazin-6-yl)pyrrolidin-3-yl)(methyl)carbamate]",≤ 100,≤ 10
"CC(C)(C)NC(=O)N1CCC[C@H]1CNc1ccc2ncc(Br)n2n1 [(S)-2-(((3-bromoimidazo[1,2-b]pyridazin-6-yl)amino)methyl)-N-(tert-butyl)pyrrolidine-1-carboxamide]",≤ 100,≤ 10
"COc1ncccc1-c1cnc2ccc(N3CCN(C(=O)[C@@H](N)CC(C)C)CC3)nn12 [(S)-2-amino-1-(4-(3-(2-methoxypyridin-3-yl)imidazo[1,2-b]pyridazin-6-yl)piperazin-1-yl)-4-methylpentan-1-one]",≤ 10,≤ 10
"O=C(CC(F)(F)F)N1CCC[C@H]1CNc1ccc2ncc(-c3ccccc3)n2n1 [(S)-3,3,3-trifluoro-1-(2-(((3-phenylimidazo[1,2-b]pyridazin-6-yl)amino)methyl)pyrrolidin-1-yl)propan-1-one]",≤ 10,≤ 10
"CC(C)(C)CC(=O)N1CCC[C@H]1CNc1ccc2ncc(-c3ccncc3)n2n1 [(S)-3,3-dimethyl-1-(2-(((3-(pyridin-4-yl)imidazo[1,2-b]pyridazin-6-yl)amino)methyl)pyrrolidin-1-yl)butan-1-one]",≤ 100,≤ 10
"CC(C)CC(=O)N1CCC[C@H]1CNc1ccc2ncc(-c3cccc(C#N)c3)n2n1 [(S)-3-(6-(((1-(3-methylbutanoyl)pyrrolidin-2-yl)methyl)amino)imidazo[1,2-b]pyridazin-3-yl)benzonitrile]",≤ 100,≤ 10
"Cc1cc(-c2cnc3ccc(NC[C@@H]4CCCN4C(=O)CC(C)C)nn23)ccn1 [(S)-3-methyl-1-(2-(((3-(2-methylpyridin-4-yl)imidazo[1,2-b]pyridazin-6-yl)amino)methyl)pyrrolidin-1-yl)butan-1-one]",≤ 100,≤ 10
"Cc1cccc(-c2cnc3ccc(NC[C@@H]4CCCN4C(=O)CC(C)C)nn23)c1 [(S)-3-methyl-1-(2-(((3-(m-tolyl)imidazo[1,2-b]pyridazin-6-yl)amino)methyl)pyrrolidin-1-yl)butan-1-one]",≤ 1000,≤ 10
"CC(C)CC(=O)N1CCC[C@H]1CNc1ccc2ncc(-c3ccccc3)n2n1 [(S)-3-methyl-1-(2-(((3-phenylimidazo[1,2-b]pyridazin-6-yl)amino)methyl)pyrrolidin-1-yl)butan-1-one]",≤ 100,≤ 10
"CC(C)CC(=O)N1CCC[C@H]1CNc1ccc2ncc(-c3ccc(C#N)cc3)n2n1 [(S)-4-(6-(((1-(3-methylbutanoyl)pyrrolidin-2-yl)methyl)amino)imidazo[1,2-b]pyridazin-3-yl)benzonitrile]",≤ 10,≤ 10
"CC(C)(C)CCN1C(=O)CC[C@H]1CNc1ccc2ncc(-c3ccc(CN)cc3)n2n1 [(S)-5-(((3-(4-(aminomethyl)phenyl)imidazo[1,2-b]pyridazin-6-yl)amino)methyl)-1-(3,3-dimethylbutyl)pyrrolidin-2-one]",≤ 100,≤ 10
